“And” between values parts separate entries of the source, which are not always exact repeats. Equal values may be shown once. Read-outs that look alike come from different tables or passages of the source.
Experiments:
PWWP2B = experiment: Gene expression of PWWP2B in HepG2 cells exposed to compound (microarray, log2 treatment:control ratio); format: cell-based, human
rodents = conditions: cited from earlier work
[1] = test system: conventional in vitro genotoxicity assays; conditions: cited from earlier work
HepG2 cell [2] = test system: HepG2 cell
Salmonella typhimurium = conditions: cited from earlier work
HepG2 cell [3] = experiment: Class prediction of in vivo genotoxicity by the method of the invention (Ames stratification plus three-gene expression in HepG2); conditions: 62 compounds, three replicates, HepG2 24 h
NR0B2 = experiment: Gene expression of NR0B2 in HepG2 cells exposed to compound (microarray, log2 treatment:control ratio); format: cell-based, human
LOC100505880 = experiment: Gene expression of LOC100131914/LOC100505880 in HepG2 cells exposed to compound (microarray, log2 treatment:control ratio); format: cell-based, human
[4] = positive when at least one in vivo assay (MN, CA) positive, equivocal considered positive

Structure (SMILES) | PWWP2B above or below the reference value (PWWP2B) | Standard (in vivo genotoxicity designation) (rodents; in vivo) | In vitro GTX [1] | Results in the conventional in vitro genotoxicity assays ([1]; see Table 5) | Log2 treatment: control ratio PWWP2B (PWWP2B) | Average result over three measurements (HepG2 cell [2]) | Ames (Salmonella typhimurium) | In vivo GTX (rodents; [4]) | Prediction (class prediction results using the method of the invention) (HepG2 cell [3]) | NR0B2 above or below the reference value (NR0B2) | At least ⅔ genes +? (HepG2 cell [2]) | Prediction (class prediction results using the method of the invention) (HepG2 cell [2]) | In vivo GTX (rodents; in vivo) | LOC100505880 above or below the reference value (LOC100505880) | Log2 treatment: control ratio LOC100505880 (LOC100505880) | Classification of NGTX compounds by the method of the invention (false positives) (HepG2 cell [2]) | Results in the conventional in vitro genotoxicity assays [1]
OCCCl [2-Cl] | + (Plus sign indicates a value above the reference value) | NGTX | + | positive results |  |  |  |  |  |  |  |  |  |  |  |  | 
CC(=O)Nc1ccc2c(c1)Cc1ccccc1-2 [2AAF] |  | GTX | + |  | −0.045 and −0.14 and 0.042 | GTX | + | + | GTX+ |  |  |  |  |  |  |  | 
Oc1cccc2cccnc12 [8HQ] |  | NGTX | + |  | 0.014 and −0.165 and −0.069 | GTX | + |  | GTX+ |  |  |  |  |  |  |  | 
Nc1ccc(-c2ccccc2)cc1 [ABP] | + (Plus sign indicates a value above the reference value) |  |  |  |  |  |  | + |  | + (Plus sign indicates a value above the reference value) |  |  |  |  |  |  | 
Nc1ccc(-c2ccc(N)cc2)cc1 [BZ] |  | GTX | + |  |  | GTX | + |  |  | + (key: +: Plus sign indicates a value above the reference value; −: minus sign indicates a value below the reference value) | GTX | GTX | + |  |  |  | 
O=P1(N(CCCl)CCCl)NCCCO1 (centres unmarked) [CP] |  | GTX | + |  | 0.042 and −0.221 and 0.073 | GTX | + | + | GTX |  | GTX |  |  | + (Plus sign indicates a value above the reference value) | −0.031 and −0.01 and 0.139 |  | 
CCN(CC)N=O [DEN] | + (Plus sign indicates a value above the reference value) | GTX | + |  |  |  |  | + |  |  |  |  |  | + (Plus sign indicates a value above the reference value) |  |  | 
Cn1c(N)nc2c3cccnc3ccc21 [IQ] | + (Plus sign indicates a value above the reference value) | GTX | + |  | 0.188 and −0.003 and −0.052 | GTX | + | + | GTX |  | GTX |  |  | + (Plus sign indicates a value above the reference value) |  |  | 
Nc1ccc(Cc2ccc(N)c(Cl)c2)cc1Cl [MOCA] | + (Plus sign indicates a value above the reference value) | GTX | + |  |  |  |  | + |  | + (Plus sign indicates a value above the reference value) |  |  |  |  |  |  | 
CCC1(c2ccccc2)C(=O)NC(=O)NC1=O [PhB] | − (minus sign indicates a value below the reference value) | NGTX | + |  | −0.169 and −0.272 and −0.154 | NGTX | + |  |  |  | NGTX | NGTX | − | − (minus sign indicates a value below the reference value) | −0.154 and −0.38 and −0.303 | misclassification | positive results

From patent US9822414B2, “In vitro method for predicting in vivo genotoxicity of chemical compounds” (priority 2011, dated 2017)
